Test results from patent US10597388B2, “Pyridazinone herbicides” (FMC CORPORATION, priority 2014, dated 2020).

How the values were obtained:
Assay type in all cases: in vivo
[1] = system: barnyardgrass (Echinochloa crus-galli); assay: Test A greenhouse herbicide test, pre- and postemergence
Summary of the method: (§1)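 Seeds sown in loam–sand blend got a preemergence directed soil spray of compound in non-phytotoxic solvent with surfactant. Postemergence treatment was given at 2–10 cm, one- to two-leaf stage. After ~10 d in greenhouse, injury was rated visually vs untreated controls, 0 (no effect) to 100 (complete control).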

corn (Zea mays) = assay: as above; conditions: Postemergence
Summary of the method: as §1

[2] = system: foxtail, giant (giant foxtail, Setaria faberii); assay: as above
Summary of the method: as §1

kochia (Kochia scoparia) = assay: as above
Summary of the method: as §1

[3] = system: pigweed (Amaranthus retroflexus); assay: as above
Summary of the method: as §1

[4] = system: ragweed (common ragweed, Ambrosia elatior); assay: as above
Summary of the method: as §1

[5] = system: ryegrass, Italian (Italian ryegrass, Lolium multiflorum); assay: as above
Summary of the method: as §1

[6] = system: wheat (Triticum aestivum); assay: as above; conditions: Postemergence
Summary of the method: as §1

[7] = system: blackgrass (Alopecurus myosuroides); assay: Test A greenhouse herbicide test, postemergence; conditions: for Blackgrass plant response rating: 0 is no effect, 100 is complete control
Summary of the method: (§2)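 Plants grown in loam soil/sand blend pots were treated postemergence at 2 to 10 cm height, one- to two-leaf stage, with formulated test chemicals. After approximately 10 d in a greenhouse, injury was rated visually against untreated controls on a 0 to 100 scale (0 no effect, 100 complete control).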

[8] = system: galium (catchweed bedstraw, Galium aparine); assay: Test A greenhouse herbicide test, postemergence
Summary of the method: as §2

[9] = system: barnyardgrass (Echinochloa crus-galli); assay: Test C greenhouse herbicide test, pre- and postemergence
Summary of the method: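 Preemergence: seeds sown in a loam soil–sand blend and sprayed with test chemicals in a non-phytotoxic solvent mixture containing surfactant. Postemergence: plants grown in peat-based medium and treated at 2 to 18 cm (1- to 4-leaf stage). After 13 to 15 d in a greenhouse, injury was visually rated 0–100 against controls.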

[10] = Postemergence, 125 g ai/ha, 0 to 100 scale where 0 is no effect and 100 is complete control
[11] = Postemergence, 500 g ai/ha, 0 to 100 scale, 0 is no effect, 100 is complete control
[12] = Preemergence, 125 g ai/ha, 0 to 100 scale where 0 is no effect and 100 is complete control
[13] = Preemergence, 500 g ai/ha, 0 to 100 scale, 0 no effect, 100 complete control
[14] = 125 g ai/ha, 0 to 100 scale where 0 is no effect and 100 is complete control
[15] = 500 g ai/ha, 0 to 100 scale, 0 is no effect, 100 is complete control
[16] = Postemergence, 31 g ai/ha, 0 to 100 scale (0 no effect, 100 complete control)
[17] = Postemergence, 125 g ai/ha, scale 0 to 100, 0 is no effect, 100 is complete control
[18] = Postemergence, 250 g ai/ha, scale 0 to 100, 0 no effect, 100 complete control, 13 to 15 d
[19] = postemergence, 62 g ai/ha, scale 0 to 100, 0 no effect, 100 complete control
[20] = Postemergence, 125 g ai/ha, 0 to 100 scale, 0 no effect, 100 complete control
[21] = Postemergence, 500 g ai/ha, visual rating after approx. 10 d, 0 to 100 scale (0 no effect, 100 complete control)
[22] = Preemergence, 125 g ai/ha, visual injury rating, 0 to 100 scale (0 no effect, 100 complete control), approx. 10 d
[23] = Preemergence, 500 g ai/ha, 0 to 100 scale where 0 is no effect and 100 is complete control
[24] = 125 g ai/ha, 0 to 100 scale, 0 no effect, 100 complete control
[25] = 500 g ai/ha, visual rating after approx. 10 d, 0 to 100 scale (0 no effect, 100 complete control)
[26] = Postemergence, 31 g ai/ha, scale 0 to 100 (0 no effect, 100 complete control)
[27] = Preemergence, 31 g ai/ha, scale 0 to 100, 0 is no effect, 100 is complete control
[28] = Preemergence, 62 g ai/ha, scale 0 to 100, 0 is no effect, 100 is complete control
[29] = Preemergence, 125 g ai/ha, scale 0 to 100, 0 is no effect, 100 is complete control
[30] = Preemergence, 250 g ai/ha, scale 0 to 100 (0 no effect, 100 complete control)

Cc1cc(C)c2ccccc2c1-c1c(O)cnn(C)c1=O [Compound 51]
Plant response rating, Barnyardgrass [1, 10]: 20
Barnyardgrass plant response rating [1, 11]: 80
Barnyardgrass plant response rating [1, 12]: 30
Plant response rating, Barnyardgrass [1, 13]: 90
Plant response rating, Corn (corn (Zea mays); [14]): 0
Corn plant response rating (corn (Zea mays); [15]): 0
Plant response rating, Foxtail, Giant [2, 10]: 50
Foxtail, Giant plant response rating [2, 11]: 80
Foxtail, Giant plant response rating [2, 12]: 50
Plant response rating, Foxtail, Giant [2, 13]: 90
Plant response rating, Kochia (kochia (Kochia scoparia); [10]): 70
Kochia plant response rating (kochia (Kochia scoparia); [11]): 90
Kochia plant response rating (kochia (Kochia scoparia); [12]): 0
Plant response rating, Kochia (kochia (Kochia scoparia); [13]): 30
Plant response rating, Pigweed [3, 10]: 70
Pigweed plant response rating [3, 11]: 90
Pigweed plant response rating [3, 12]: 70
Plant response rating, Pigweed [3, 13]: 100
Plant response rating, Ragweed [4, 10]: 70
Ragweed plant response rating [4, 11]: 70
Ragweed plant response rating [4, 12]: 30
Plant response rating, Ragweed [4, 13]: 80
Plant response rating, Ryegrass, Italian [5, 10]: 60
Ryegrass, Italian plant response rating [5, 11]: 90
Ryegrass, Italian plant response rating [5, 12]: 50
Plant response rating, Ryegrass, Italian [5, 13]: 90
Plant response rating, Wheat [6, 14]: 0
Wheat plant response rating [6, 15]: 0
Plant response rating, Blackgrass [7, 14]: 30
Blackgrass plant response rating ([7]; 500 g ai/ha, 0 to 100 scale): 60
Plant response rating, Galium [8, 14]: 90
Galium plant response rating [8, 15]: 100
Barnyardgrass plant response rating [9, 16]: 5
Plant response rating, Barnyardgrass [9, 17]: 10
Plant response rating, Barnyardgrass [9, 18]: 20
Barnyardgrass plant response rating [9, 19]: 5

Cc1cc(C)c2ccccc2c1-c1c(OS(C)(=O)=O)c(C)nn(C)c1=O [Compound 154]
Plant response rating, Barnyardgrass [1, 20]: 90
Plant response rating, Barnyardgrass [1, 21]: 90
Plant response rating, Barnyardgrass [1, 22]: 70
Plant response rating, Barnyardgrass [1, 23]: 100
Plant response rating, Corn (corn (Zea mays); [24]): 0
Plant response rating, Corn (corn (Zea mays); [25]): 40
Plant response rating, Foxtail, Giant [2, 20]: 90
Plant response rating, Foxtail, Giant [2, 21]: 90
Plant response rating, Foxtail, Giant [2, 22]: 90
Plant response rating, Foxtail, Giant [2, 23]: 100
Plant response rating, Kochia (kochia (Kochia scoparia); [20]): 20
Plant response rating, Kochia (kochia (Kochia scoparia); [21]): 50
Plant response rating, Kochia (kochia (Kochia scoparia); [22]): 0
Plant response rating, Kochia (kochia (Kochia scoparia); [23]): 20
Plant response rating, Pigweed [3, 20]: 90
Plant response rating, Pigweed [3, 21]: 90
Plant response rating, Pigweed [3, 22]: 100
Plant response rating, Pigweed [3, 23]: 100
Plant response rating, Ragweed [4, 20]: 80
Plant response rating, Ragweed [4, 21]: 80
Plant response rating, Ragweed [4, 22]: 80
Plant response rating, Ragweed [4, 23]: 90
Plant response rating, Ryegrass, Italian [5, 20]: 90
Plant response rating, Ryegrass, Italian [5, 21]: 100
Plant response rating, Ryegrass, Italian [5, 22]: 90
Plant response rating, Ryegrass, Italian [5, 23]: 100
Plant response rating, Wheat [6, 24]: 0
Plant response rating, Wheat [6, 25]: 20
Plant response rating, Blackgrass [7, 24]: 70
Plant response rating, Blackgrass [7, 25]: 90
Plant response rating, Galium [8, 24]: 100
Plant response rating, Galium [8, 25]: 100
Plant response rating, Barnyardgrass [9, 26]: 70
Barnyardgrass plant response rating ([9]; Postemergence, 62 g ai/ha, 0 to 100 scale (0 no effect, 100 complete control)): 85
Plant response rating, Barnyardgrass [9, 17]: 90
Plant response rating, Barnyardgrass [9, 18]: 95
Plant response rating, Barnyardgrass [9, 27]: 65
Plant response rating, Barnyardgrass [9, 28]: 80
Plant response rating, Barnyardgrass [9, 29]: 90
Barnyardgrass plant response rating [9, 30]: 95

Cc1nn(C)c(=O)c(-c2c(C)sc3ccc(Cl)cc23)c1O [Compound 104]
Plant response rating, Barnyardgrass [1, 10]: 70
Barnyardgrass plant response rating [1, 11]: 100
Barnyardgrass plant response rating [1, 12]: 80
Plant response rating, Barnyardgrass [1, 23]: 100
Plant response rating, Corn (corn (Zea mays); [14]): 0
Plant response rating, Corn (corn (Zea mays); [25]): 20
Plant response rating, Foxtail, Giant [2, 10]: 80
Plant response rating, Foxtail, Giant [2, 21]: 100
Foxtail, Giant plant response rating [2, 12]: 70
Plant response rating, Foxtail, Giant [2, 23]: 100
Plant response rating, Kochia (kochia (Kochia scoparia); [10]): 90
Plant response rating, Kochia (kochia (Kochia scoparia); [21]): 100
Kochia plant response rating (kochia (Kochia scoparia); [12]): 100
Plant response rating, Kochia (kochia (Kochia scoparia); [23]): 100
Plant response rating, Pigweed [3, 10]: 90
Plant response rating, Pigweed [3, 21]: 90
Pigweed plant response rating [3, 12]: 100
Plant response rating, Pigweed [3, 23]: 100
Plant response rating, Ragweed [4, 10]: 100
Plant response rating, Ragweed [4, 21]: 100
Ragweed plant response rating [4, 12]: 90
Plant response rating, Ragweed [4, 23]: 100
Plant response rating, Ryegrass, Italian [5, 10]: 100
Plant response rating, Ryegrass, Italian [5, 21]: 100
Ryegrass, Italian plant response rating [5, 12]: 100
Plant response rating, Ryegrass, Italian [5, 23]: 100
Plant response rating, Wheat [6, 14]: 20
Plant response rating, Wheat [6, 25]: 20
Plant response rating, Blackgrass [7, 14]: 90
Blackgrass plant response rating ([7]; 500 g ai/ha, 0 to 100 scale): 90
Plant response rating, Galium [8, 14]: 100
Plant response rating, Galium [8, 25]: 100
Plant response rating, Barnyardgrass [9, 26]: 20
Plant response rating, Barnyardgrass [9, 17]: 45
Plant response rating, Barnyardgrass [9, 18]: 55
Plant response rating, Barnyardgrass [9, 27]: 10
Plant response rating, Barnyardgrass [9, 28]: 25
Plant response rating, Barnyardgrass [9, 29]: 40
Barnyardgrass plant response rating [9, 30]: 80
Barnyardgrass plant response rating [9, 19]: 35

COc1nn(C)c(=O)c(-c2c(C)sc3ccc(Cl)cc23)c1O [Compound 100]
Plant response rating, Barnyardgrass [1, 10]: 30
Barnyardgrass plant response rating [1, 11]: 30
Barnyardgrass plant response rating [1, 12]: 20
Plant response rating, Barnyardgrass [1, 23]: 20
Plant response rating, Corn (corn (Zea mays); [14]): 0
Plant response rating, Corn (corn (Zea mays); [25]): 20
Plant response rating, Foxtail, Giant [2, 10]: 80
Plant response rating, Foxtail, Giant [2, 21]: 80
Foxtail, Giant plant response rating [2, 12]: 70
Plant response rating, Foxtail, Giant [2, 23]: 90
Plant response rating, Kochia (kochia (Kochia scoparia); [10]): 70
Plant response rating, Kochia (kochia (Kochia scoparia); [21]): 100
Kochia plant response rating (kochia (Kochia scoparia); [12]): 30
Plant response rating, Kochia (kochia (Kochia scoparia); [23]): 70
Plant response rating, Pigweed [3, 10]: 80
Plant response rating, Pigweed [3, 21]: 90
Pigweed plant response rating [3, 12]: 100
Plant response rating, Pigweed [3, 23]: 100
Plant response rating, Ragweed [4, 10]: 90
Plant response rating, Ragweed [4, 21]: 90
Ragweed plant response rating [4, 12]: 40
Plant response rating, Ragweed [4, 23]: 80
Plant response rating, Ryegrass, Italian [5, 10]: 90
Plant response rating, Ryegrass, Italian [5, 21]: 100
Ryegrass, Italian plant response rating [5, 12]: 90
Plant response rating, Ryegrass, Italian [5, 23]: 100
Plant response rating, Wheat [6, 14]: 0
Plant response rating, Wheat [6, 25]: 20
Plant response rating, Blackgrass [7, 14]: 40
Blackgrass plant response rating ([7]; 500 g ai/ha, 0 to 100 scale): 70
Plant response rating, Galium [8, 14]: 90
Plant response rating, Galium [8, 25]: 100
Barnyardgrass plant response rating [9, 16]: 10
Plant response rating, Barnyardgrass [9, 17]: 30
Plant response rating, Barnyardgrass [9, 18]: 40
Barnyardgrass plant response rating [9, 19]: 25
